Each structure is given as a SMILES string. A value given as a limit tells only on which side of the number the result lay.

By melting point is commonly meant the temperature, or range, at which the solid turns liquid.

With `COC(=O)C(=O)Nc1cccc(OCCCBr)c1`, the melting point fell in the range of 90 to 91 °C. The value for `Cc1ccccc1C=C1CCc2c1oc1ccc(C(=O)O)cc1c2=O` was > 300 °C; that for `CC(=O)NC[C@H]1CN(c2ccc(N3CCC(F)(COS(C)(=O)=O)CC3)c(F)c2)C(=O)O1` was 182 to 183 °C; that for `O=C(O)c1ccc2c(c1)S(=O)(=O)c1ccccc1C(=O)N2` was 337 to 340 °C.

Take `Oc1cc(O)cc(/C=C/c2ccccc2)c1`: the melting point was in the range of 157 to 158 °C. On to `O=C(O)Cc1ccc(NC(=O)CCCCCNC(=O)OCc2ccccc2)cc1`, for which the melting point was in the range of 136 to 138 °C. In turn, `O=C1CC2CCCCC2=NN1c1ccc(Cl)cc1F` (stereo unspecified) had a melting point of 110 to 112 °C. The value for `O=C1O[C@@H](Cn2ccnn2)CN1c1ccc(-c2ccc(C3=NOC(CS(=O)(=O)CCc4ccncc4)C3)nc2)c(F)c1` (stereo partly specified) was 195 °C; that for `CCOC(=O)c1cn(C2CC2)c2nc(S(=O)(=O)c3ccc(C)cc3)c(F)cc2c1=O` was 216 to 218 °C; that for `C#CCSC(=NC(=O)OC)NC(=O)Nc1ccc(C)cc1` was 161 to 162 °C.

Consider `CC(C)(C)OC(=O)NCCNC(=O)c1ncsc1-c1cccc(I)c1`, for which the melting point is 111 to 112 °C.

Regarding `COc1ccc(S(=O)(=O)N(C)CP(=O)(O)O)cc1N`, the melting point was in the range of 218 to 220 °C.

With `O=C(O)c1cc(F)c(O)nc1Nc1ccc(F)cc1`, the melting point was in the range of 216 to 217 °C. As for `c1ccc(-c2nc3ccccc3n2-c2ccccc2)cc1`, the figure is 105 to 107 °C. As for `N#Cc1ccc(NC(=O)NCCCCl)cc1`, the figure is 95 to 97 °C.

Turning to `COCCOc1ccc2c(C3C(=O)Nc4ccc(C#N)cc43)nccc2c1` (stereo unspecified), the melting point is 214 to 219 °C.

`Cc1nc(C(O)(c2nc(C)c(C)s2)C(F)(F)F)sc1C` displayed a melting point of 122 to 124 °C. As for `CCOc1c(C)ccc2c1c1cc(Br)ccc1n2C(=O)OC(C)(C)C`, the figure is 137 °C. Turning to `CC(C)(C)OC(=O)NCC(NC(=O)OC(C)(C)C)C(=O)NCCNC(=O)OCc1ccccc1` (stereo unspecified), the melting point was in the range of 152 to 154 °C.

Molecule `CCCN(CCC)c1nc2c(N3CCCCCC3)nc(N3CCCCCC3)cc2c(=O)[nH]1` registered a melting point of 220 °C. As for `Cc1cccc(SC2=C(O)CC(CCc3ccccc3)(c3ccccc3)OC2=O)c1` (stereo unspecified), the figure is 68 to 70 °C; as for `CON=C(C(=O)OC)c1csc(NC(=O)CCl)n1`, 131 °C; as for `COc1cc2c(c(-c3cc(Cl)ccc3Cl)c1)OC(CN)C2` (stereo unspecified), 140 to 142 °C. Turning to `CCOC(=O)c1c(-c2ccc(F)cc2)c2ccncc2c(=O)n1C`, the melting point is 158 to 160 °C.

In the case of `CN(C)c1ncc(-c2cccc(Nc3ccc(-c4ccoc4)cc3[N+](=O)[O-])c2)cn1`, the melting point was in the range of 181 to 182 °C.

For `CN1C(C(=O)Nc2cncc(Cl)n2)=C(O)c2cc(Cl)ccc2S1(=O)=O`, the melting point was 283 to 284 °C. In turn, `CCOC(=O)C(=O)CC(=O)c1cn(Cc2ccc([N+](=O)[O-])cc2)c2ccccc2c1=O` returned a melting point of 175 to 176 °C. The value for `O=C1c2ccccc2COc2c(Br)cccc21` was 127 to 130 °C; that for `COc1ccc(CCOc2ccc(C(=O)N/C(=C\c3ccc(SC)cc3)C(=O)NCCO)cc2)cc1` was 61 to 63 °C; that for `Cc1cc(=O)n2c3c(cc(C(OCc4ccccc4)(C(F)(F)F)C(F)(F)F)cc13)CC2` was 207 to 208 °C. As for `CS(=O)(=O)c1cccc(NC(=O)c2cnn3c(C(F)(F)F)cc(-c4ccc(C(F)(F)F)c(F)c4)nc23)c1`, the figure is 246 °C; as for `CCOC(=O)C1C2OC3COC(C)(C)OC3C(OC)C21` (stereo unspecified), 65 to 68 °C. As for `CCOC(=O)C1=C(COCCNS(=O)(=O)N2CCN(C)CC2)NC(C)=C(C(=O)OC)C1c1ccccc1Cl` (stereo unspecified), the figure is 137 to 139 °C; as for `CCOC(=O)CCCCCCC1C(=O)NC(=O)N1C1(O)CCCCC1` (stereo unspecified), 62 to 63 °C. `CCOC(=O)C(CNC(=O)CSC(=O)c1ccccc1)NC(=O)CSC(=O)c1ccccc1` (stereo unspecified) registered a melting point of 130 to 131 °C. As for `CCCCc1nn(-c2cc(NC(=O)OCCC)ccc2Cl)c(=O)n1Cc1ccc(-c2ccccc2S(=O)(=O)NC(=O)c2ccccc2Cl)cc1`, the melting point was > 119 °C. `CCCCNC(=O)Oc1ccc(Oc2ccccc2)cc1C(=O)OC` gave a melting point of 53 to 56 °C. As for `CCC1(Cc2nc[nH]c2C)CCc2c(C)c3ccccc3n2C1=O` (stereo unspecified), the melting point was in the range of 202 to 204 °C. As for `CCc1cc(-c2cc(N)n3nc(-c4ccco4)nc3c2)ccn1`, the figure is 184 to 186 °C.

`CCn1nc(C(=O)NC2CN(C)CCN(Cc3cccc(C)c3)C2)c2ccccc21` (stereo unspecified) had a melting point of 135 to 137 °C. As for `BrCc1cc(I)cc(I)c1I`, the figure is 120 to 121 °C; as for `CC(NC(=O)c1cc(Cl)cc(Br)c1N)C1CC1` (stereo unspecified), 177 °C. As for `COc1c(C)c(C)c(OC)c(CC=C(C)CO)c1C`, the figure is 85 to 86 °C. `COc1ccc(-c2csc(C(=O)O)n2)cc1OC1CC2CCC1C2` (stereo unspecified) yielded a melting point of 112 to 113 °C. In the case of `CC(C)(C)Sc1c(CC(C)(C)C(=O)O)n(Cc2ccc(Cl)cc2)c2ccc(Oc3ccccn3)cc12`, the melting point fell in the range of 206 to 207 °C.

`C(=Cc1nc(CNc2ccc(CCCCn3ccnn3)cc2)co1)c1ccc2c(c1)OCO2`: the melting point was 130 to 131 °C. Take `CNC(=O)c1ccc(C(=O)O)cc1N`: the melting point was 215 to 217 °C. As for `COc1ccc(C2=NN(C3CCN(Cc4ccncc4)CC3)C(=O)[C@@H]3CC=CC[C@H]23)cc1OC`, the figure is 196 to 197 °C. The value for `c1ccc(C(OC2CCN(CCOc3ccc4nncn4n3)CC2)c2ccccc2)cc1` was 149 to 150 °C. As for `CC1(C)CN=C2N(C1)c1ccc(C(=O)O)cc1C21OCCCO1`, the figure is 151 to 153 °C; as for `Nc1c(N=O)c(=O)n(C2CC2)c(=O)n1C1CC1`, 230 °C; as for `CCn1cc(C(=O)NCc2ccc(Cl)cc2)c(=O)c2cc(CN3CCOCC3)sc21`, 194 to 196 °C. For the molecule `CC(C)(C)OC(=O)Nc1ccc(C(=O)O)c2ccccc12`, the melting point lay in the range of 194 to 195 °C. For `CN(C)CCCOc1cc(-c2ncccc2Cl)cc2c(Nc3nccs3)n[nH]c12`, the melting point is 215 to 217 °C. For the molecule `ClCc1c2ccccc2c(CCl)c2ccccc12`, the melting point is 238 to 243 °C.

`CCCCN1C(=O)CC(c2cc(C(C)(C)C)c(O)c(C(C)(C)C)c2)C1=O` (stereo unspecified) came in with a melting point of 109 to 112 °C. The value for `CCCCOC(=O)c1ccc2ccc(C=O)nc2c1OC(=O)C(C)(C)C` was 108 °C. For `CCCCCCc1cc2c(s1)-n1c(C)nnc1CN=C2c1ccccc1C`, the melting point lay in the range of 135 to 137 °C. As for `CC1CCC(=NN)c2ncc(C(=O)NN)c(=O)n21` (stereo unspecified), the figure is 219 to 220 °C. With `CCCn1c(=O)n(Cc2ccccc2)c(=O)c2c(Cl)cc(Cl)cc21`, the melting point was in the range of 90 to 93 °C. The value for `Cc1nc(-c2ccc(C(F)(F)F)cc2)oc1COc1ccc(OCc2nn[nH]n2)cc1` was 156 °C; that for `CC(C)(C)CC(C)(C)NCC(O)COc1ccccc1C(=O)Nc1cccc2[nH]ccc12` (stereo unspecified) was 140 °C; that for `Cc1cc(F)ccc1C(=O)CCCN1CCC(O)(c2cccc(C(F)(F)F)c2)CC1` was 63.5 °C. The value for `COc1cc(-c2oc3cc(I)ccc3c(=O)c2O)cc(OC)c1OCc1ccccc1` was 169 to 171 °C; that for `S=c1[nH]c2cccnc2n1-c1ccc2c(c1)OCO2` was 278 °C; that for `O=C(O)CCC(=NOCc1ccc(OCc2cc(-c3ccccc3)no2)cc1)c1ccccc1` was 96 to 97 °C. As for `CC(=O)Oc1cccc(C(Br)C(Br)c2ccccc2)c1` (stereo unspecified), the figure is 156 to 157 °C.

On to `CCOC(=O)C(C(=O)OCC)c1n[nH]c(C)c1[N+](=O)[O-]`, for which the melting point lay within 100 to 102 °C.

Regarding `COc1ccc(-c2csc(Nc3cc(OC)ccc3OC)n2)cc1`, the melting point was 104 °C. In the case of `CCOC(=O)c1c[nH]c(=O)s1`, the melting point came to 127 °C.

The molecule `CC(C)CCCC(C)C1CCC2C3=CCC4C(C)(C)C(OC(=O)c5ccccc5)CCC4(C)C3CCC21C` (stereo unspecified) displayed a melting point of 160 to 161 °C. Regarding `Oc1ccc(-n2c(-c3ccccc3)cc3c2CCCC3)cc1`, the melting point is 181 to 182 °C. The value for `CCc1nn(C2CCCC2)c(NC(=O)c2ccnc3ccccc23)c1C#N` was 156 to 161 °C; that for `C#Cc1ccc2ccc(OC(CC)C(=O)NC(C)(C)CO)cc2c1` (stereo unspecified) was 81 to 82 °C.

The molecule `O=C1c2ccccc2C(=O)N1CC(=O)N1c2ccccc2N(Cc2ccccc2)C(=O)[C@H]2CCC[C@H]21` (relative stereo) showed a melting point of 247 to 249 °C. As for `NC(=O)N(O)CCNC(=O)Cc1ccccc1Nc1c(Cl)cccc1Cl`, the figure is 187 to 189 °C. As for `COc1ncccc1-c1[nH]c2ccccc2c1C1CCN(S(=O)(=O)c2ccccc2)CC1`, the figure is 231 to 234 °C. Take `COC(=O)c1ccc(-c2nc3[nH]c4ccccc4c3c(=O)[nH]2)cc1`: the melting point was > 250 °C. The value for `O=C(O)c1cnc(N2CCC(NS(=O)(=O)c3ccc4ccccc4c3)CC2)nc1` was > 260 °C; that for `COc1cc2c(Nc3cc(OC)c(OC)c(OC)c3)c(C#N)cnc2cc1F` was 215 to 217 °C. As for `Cc1ccc2[nH]c3c(c2c1)CCNC3(C(=O)OC(C)(C)C)C1(NC(=O)OCc2ccccc2)CCC1` (stereo unspecified), the figure is 219 to 220 °C. As for `O=[N+]([O-])c1cc(Cl)c(C=CN2CCN(c3nsc4ccccc34)CC2)cc1Cl`, the figure is 194 to 195 °C; as for `O=C1CC2c3ccccc3CCN2C2CCCC12` (stereo unspecified), 101 to 102 °C; as for `CS(=O)(=O)Nc1cc(C(=O)NNC(=O)c2occ(-c3ccccc3)c2-c2ccccc2)ccc1O`, 230 to 231 °C.

Consider `COc1ccc(Cn2cnc3c(Cl)ncnc32)cc1OC`, for which the melting point was 159 to 163 °C. As for `O=C(CCC12CCC(=O)N1C(=O)CC2)OCc1ccccc1Cl`, the figure is 126 to 128 °C.

These data come from a melting point compilation (Tetko et al.; mined from patent text by program, amines drawn as free bases though some values may be those of a salt).
